Measurements reported in ChEMBL document CHEMBL1201862, “PubChem BioAssay data set” (2004).
Calls of active or inactive are those of the source.

Legend:
[1] = molecular target: Sphingosine 1-phosphate receptor 4 (Homo sapiens, UniProt O95977); assay: Late-stage fluorescence dose response cell-based assay to identify agonists of the Sphingosine 1-Phosphate Receptor 4 (S1P4): purchased compounds EC50. [Related pubchem assays (depositor defined):AID1509, AID1523, AID1563, AID1686, AID1701, AID1801]; type: functional
Sphingosine 1-phosphate receptor 4, sequence (O95977 whole entry, the tested form may be a part): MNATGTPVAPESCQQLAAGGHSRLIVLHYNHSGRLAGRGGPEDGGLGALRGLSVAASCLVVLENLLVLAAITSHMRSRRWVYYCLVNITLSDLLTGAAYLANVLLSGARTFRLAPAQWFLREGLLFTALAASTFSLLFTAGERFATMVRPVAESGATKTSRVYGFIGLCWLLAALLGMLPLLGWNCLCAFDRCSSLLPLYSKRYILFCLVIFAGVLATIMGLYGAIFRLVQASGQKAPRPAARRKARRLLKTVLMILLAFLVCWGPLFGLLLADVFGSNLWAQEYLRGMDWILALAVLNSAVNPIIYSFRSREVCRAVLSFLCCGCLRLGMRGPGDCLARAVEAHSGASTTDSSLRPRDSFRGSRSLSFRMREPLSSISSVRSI

[2] = molecular target: 1-acylglycerol-3-phosphate O-acyltransferase ABHD5/Perilipin-5 (Homo sapiens, UniProt Q00G26+Q8WTS1); assay: Luminescence-based biochemical high throughput dose response assay for inhibitors of the interaction of the lipase co-activator protein, abhydrolase domain containing 5 (ABHD5) with perilipin-5 (MLDP; PLIN5) (2K validation set). [Related pubchem assays (depositor defined):AID493035, AID493241]
1-acylglycerol-3-phosphate O-acyltransferase ABHD5/Perilipin-5, sequence (Q00G26 whole entry, the tested form may be a part): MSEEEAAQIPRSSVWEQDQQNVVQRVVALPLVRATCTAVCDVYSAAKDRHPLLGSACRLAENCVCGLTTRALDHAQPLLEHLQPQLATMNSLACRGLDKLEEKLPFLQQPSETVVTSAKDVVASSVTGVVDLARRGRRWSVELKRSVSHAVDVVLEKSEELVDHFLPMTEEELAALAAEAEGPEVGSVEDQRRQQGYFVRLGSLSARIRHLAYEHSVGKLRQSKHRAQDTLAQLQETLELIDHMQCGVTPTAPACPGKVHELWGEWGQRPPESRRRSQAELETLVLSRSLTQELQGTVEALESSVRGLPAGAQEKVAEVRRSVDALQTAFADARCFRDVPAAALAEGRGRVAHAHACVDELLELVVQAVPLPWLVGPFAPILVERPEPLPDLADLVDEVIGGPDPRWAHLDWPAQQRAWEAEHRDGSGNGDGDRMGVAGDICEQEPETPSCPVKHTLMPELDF
1-acylglycerol-3-phosphate O-acyltransferase ABHD5/Perilipin-5, sequence (Q8WTS1 whole entry, the tested form may be a part): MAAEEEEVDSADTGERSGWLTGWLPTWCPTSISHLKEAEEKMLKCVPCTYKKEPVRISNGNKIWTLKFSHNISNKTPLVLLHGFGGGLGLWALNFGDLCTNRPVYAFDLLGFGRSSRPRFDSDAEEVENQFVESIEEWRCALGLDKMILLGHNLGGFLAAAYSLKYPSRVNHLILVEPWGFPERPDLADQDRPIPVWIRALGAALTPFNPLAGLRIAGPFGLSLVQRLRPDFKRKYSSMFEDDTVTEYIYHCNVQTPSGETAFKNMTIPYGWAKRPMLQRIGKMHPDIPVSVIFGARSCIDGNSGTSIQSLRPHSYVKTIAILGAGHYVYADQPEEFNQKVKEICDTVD

Perilipin-1/ABHD5 = Perilipin-1/ABHD5 (Homo sapiens, UniProt O60240+Q8WTS1); assay: Luminescence-based biochemical high throughput dose response assay for inhibitors of the interaction of the lipase co-activator protein, abhydrolase domain containing 5 (ABHD5) with perilipin-1 (PLIN1) (2K validation set). [Related pubchem assays (depositor defined):AID493027, AID493057]
Perilipin-1/ABHD5, sequence (Q8WTS1 whole entry, the tested form may be a part): as above
Perilipin-1/ABHD5, sequence (O60240 whole entry, the tested form may be a part): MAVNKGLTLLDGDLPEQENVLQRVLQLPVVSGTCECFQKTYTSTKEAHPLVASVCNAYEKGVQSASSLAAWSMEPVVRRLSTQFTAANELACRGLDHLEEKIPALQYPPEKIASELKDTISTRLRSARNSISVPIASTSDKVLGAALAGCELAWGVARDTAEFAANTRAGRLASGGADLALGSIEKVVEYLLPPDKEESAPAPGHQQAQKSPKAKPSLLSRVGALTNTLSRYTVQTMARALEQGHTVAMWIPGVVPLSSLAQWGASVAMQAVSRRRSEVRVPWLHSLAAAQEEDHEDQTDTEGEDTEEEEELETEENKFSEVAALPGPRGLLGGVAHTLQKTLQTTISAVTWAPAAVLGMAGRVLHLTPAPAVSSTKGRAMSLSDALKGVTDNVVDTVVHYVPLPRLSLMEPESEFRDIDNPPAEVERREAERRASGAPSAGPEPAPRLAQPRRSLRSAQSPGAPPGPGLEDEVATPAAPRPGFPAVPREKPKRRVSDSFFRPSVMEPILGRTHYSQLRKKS

Coagulation factor XII = Coagulation factor XII (Homo sapiens, UniProt P00748); type: functional;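 note: activated factor XIIa alpha cleaving a fluorogenic AMC peptide substrate; inhibitor potency from loss of enzyme activity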
Coagulation factor XII, sequence (P00748 20-372 limits assumed): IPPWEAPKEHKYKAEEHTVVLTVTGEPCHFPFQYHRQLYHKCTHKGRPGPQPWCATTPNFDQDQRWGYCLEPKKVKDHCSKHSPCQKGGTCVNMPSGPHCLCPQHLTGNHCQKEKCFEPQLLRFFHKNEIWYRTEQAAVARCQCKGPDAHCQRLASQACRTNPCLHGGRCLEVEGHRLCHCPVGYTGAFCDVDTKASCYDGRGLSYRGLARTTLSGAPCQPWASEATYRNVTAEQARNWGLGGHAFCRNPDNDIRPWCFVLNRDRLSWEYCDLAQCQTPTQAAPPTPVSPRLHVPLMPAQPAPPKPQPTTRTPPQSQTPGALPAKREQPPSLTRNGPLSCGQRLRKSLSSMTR
Coagulation factor XII, sequence (P00748 373-615 limits assumed): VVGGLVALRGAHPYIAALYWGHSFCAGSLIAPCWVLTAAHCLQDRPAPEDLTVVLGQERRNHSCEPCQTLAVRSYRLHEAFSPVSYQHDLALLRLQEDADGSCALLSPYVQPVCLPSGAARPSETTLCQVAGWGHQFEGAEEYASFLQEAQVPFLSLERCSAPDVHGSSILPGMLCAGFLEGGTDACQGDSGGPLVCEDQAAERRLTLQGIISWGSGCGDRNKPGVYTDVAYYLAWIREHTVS

With `Cc1ccc(OCC(=O)Nc2ccc(Cl)cc2)c([N+](=O)[O-])n1` as the molecule, how does the EC50 [1] read?
Its EC50 is > 50 µM (inactive).

Which IC50 [2] does the source give for `CC1(c2ccccc2)CC(C)(C)N2C(=O)C(=O)c3cccc1c32` (centres undefined) here?
Its IC50 is 21.7 µM (inactive).

And the IC50 (Perilipin-1/ABHD5)?
Its IC50 is 19 µM (inactive).

Which IC50 (Coagulation factor XII) does the source give for `COc1cc(-c2nnco2)cc(OC)c1OC` here?
The IC50 was > 50 µM (inactive).
